Patent US9795810B2, “Propylene glycol/glycerin-based deodorant” (COLGATE-PALMOLIVE COMPANY, priority 2007, dated 2017)

Tested on: Corynebacterium minutissimum
Test: Zone of Inhibition test on inoculated agar plates
Format: cell-based
Details: for Zone of Inhibition (mm): from the edge of 2 cm disk, 0.2 g stick or approx. 0.6 g neat, 37° C., 48 hrs
Experimental: A commercially available regular Mennen Speed Stick (MSS) deodorant stick, an Ultimate Mennen Speed Stick deodorant stick (containing triclosan as a control) and the PG-free deodorant stick containing glycerin were tested with a Zone Of Inhibition test using 2 cm Webril® (Fiberweb, Gray Court, S.C.) cotton disks on inoculated plates. Also, as controls: water, neat (undiluted) PG and neat glycerin were tested.
Zone of Inhibition Test method: To the disks was added 0.2 g of the stick products or approximately 0.6 g (enough to just saturate the disk) of the neat controls. The disks were then inverted and placed face down on an inoculated agar plate. The agar plates were streaked beforehand (30 minutes) such that a bacterial lawn of Corynebacterium minutissimum at a concentration of 10^6/ml was created covering the entire plate surface. The plates were then incubated at 37° C. for 48 hrs.
Zones of inhibition were measured in millimeters (mm) from the edge of the disk. A greater zone equals increased bacterial growth inhibition.

SMILES | Zone of inhibition result in words | Zone of Inhibition (mm)
OCC(O)CO [Glycerin neat, glycerin] | small zone | 1
CC(O)CO (stereo not drawn) [PG neat, propylene glycol] |  | 2.5
